Measured values taken from patent US20260097106A1, “AVIRULENT LIVE BACTERIAL VACCINES CURED OF PLASMIDS CONTAINING ANTIMICROBIAL RESISTANCE GENES” (Drs. Koehnk & Feldman, LLP, priority 2022, published 2026).
Where two headings read alike, the source gives them in different places.

Experiments:
[1] = tested on: Entero Vac K88 strain of E. coli vaccine; details: TSB media, overnight 37° C.
Protocol: (§1) Testing for resistance of the live avirulent E. coli strains, Entero Vac K88 and Edema Vac F18, to sodium chlorite was performed by evaluating the minimum inhibitory concentration of sodium chlorite as follows: Serial dilutions of sodium chlorite were prepared from a 100 mM stock solution using sterile TSB media and filter sterilized through 0.22 μm filter. Serially diluted tubes (5 ml each) were inoculated with either Entero Vac K88 or Edema Vac F18 strains of E. coli vaccine by adding 20 μl of 100 dose size of either Entero Vac K88 or Edema Vac F18 vaccine rehydrated in 5 ml TSB media. Positive controls are inoculated TSB media only, negative controls are uninoculated TSB media. All tubes were incubated overnight at 37° C. and turbidity was visualized the following day. Results of the MIC tests are disclosed in Table 1.

[2] = tested on: Edema Vac F18 strain of E. coli vaccine; details: TSB media, overnight 37° C.
Protocol: as §1

[3] = tested on: MS112101HM-competent (competent Edema Vac F18 cells); test: AMR disc testing on Mueller Hinton agar plates; type: cell-based, E. coli; details: antibiotic disc
Protocol: (§2) AMR testing was performed comparing MS112101HM—SR, MS112101HM-AMR5, and MS112101HM-competent cells cultured on Mueller Hinton agar plates using Sulfatrim (SXT), Tetracycline (TE 30), Neomycin (NE 30), Sulfathiazine (ST 0.25), and Gentamicin (GM 10) discs.

[4] = tested on: MS112101HM-SR (Edema Vac F18 cells cured of plasmids that contain AMR genes); test: AMR disc testing on Mueller Hinton agar plates; type: cell-based, E. coli; details: for Ring measurement (radius, mm): antibiotic disc, Mueller Hinton plates, MS112101HM-SR; for Resistance of the strain to the antibiotic (in words): disc test, MS112101HM-SR compared with MS112101HM-competent
Protocol: as §2

[5] = tested on: MS112101HM-AMR5 (Edema Vac F18 transformed with AMR5 plasmid); test: AMR disc testing on Mueller Hinton agar plates; type: cell-based, E. coli; details: for Ring measurement (radius, mm): antibiotic disc, Mueller Hinton plates
Protocol: as §2

[6] = tested on: F18 Pre-Cured cells (MS112101HM-competent); test: Antibiotic sensitivity (Int/MIC) at Iowa State University; type: cell-based, E. coli; details: Table 4, E. COLH
Protocol: (§3) The antibiotic sensitivity of Edema Vac F18 cells cured of plasmids that contain AMR genes (MS060520HM-PCISRAF18) was performed at Iowa State University (ISU) (Accession: 2020076670) with comparison to MS112101HM-competent cells (see Tables 4 and 5).

[7] = tested on: F18 Cured vaccine (MS060520HM-PCISRAF18); test: as above; type: cell-based, E. coli; details: for MIC: F18 Cured vaccine; for Antibiotic resistance of cured cells (in words): cured MS060520HM-PCISRAF18 cells over MS112101HM-competent cells
Protocol: as §3

[8] = tested on: K88 Pre-Cured cells (ECMS091703HM-competent); test: as above; type: cell-based, E. coli; details: Table 7, E. COS
Protocol: (§4) The antibiotic sensitivity of Entero Vac K88 cells cured of plasmids that contain AMR genes (MS-K88-030321HM-PC2BSRAK88) was performed at Iowa State University (ISU) with comparison to ECMS091703HM-competent cells.

[9] = tested on: K88 Cured vaccine (MS-K88-030321HM-PC2BSRAK88); test: as above; type: cell-based, E. coli; details: for MIC: Table 7, E. COS, K88 Cured vaccine; for Antibiotic sensitivity of cured cells (in words): cured MS-K88-030321HM-PC2BSRAK88 cells compared with ECMS091703HM-competent cells
Protocol: as §4

[10] = tested on: ECMS091703HM-SR (Entero Vac K88 cells cured of plasmids that contain AMR genes); test: AMR disc testing on Mueller Hinton agar plates; type: cell-based, E. coli
Protocol: AMR testing was performed comparing ECMS091703HM-SR and ECMS091703HM-competent cells cultured on Mueller Hinton agar plates using Neomycin (NE 30) and Sulfathiazine (ST 0.25) discs. A master plate of ECMS091703HM-SR was produced as follows: subculturing a colony of ECMS091703HM-SR from LB agar containing 5% sucrose on new LB agar containing 5% sucrose, incubating overnight at 37° C., and storing sealed at 2-8° C.

Compound | MIC [6] | MIC ([7]; Table 4, E. COLH) | MIC ([7]; Table 5, E. COS) | MIC [8] | MIC [9] | Antibiotic resistance of cured cells (in words) [7] | also measured
Sodium Chlorite [NaClO2] |  |  |  |  |  |  | Turbidity ([1]; NaClO2 0.03125 mM): Pos; Turbidity ([1]; NaClO2 0.0625 mM): Pos; Turbidity ([1]; NaClO2 0.125 mM): Neg; Turbidity ([1]; NaClO2 0.25 mM): Neg; Turbidity ([1]; NaClO2 0.5 mM): Neg; Turbidity ([1]; NaClO2 1 mM): Neg; Turbidity ([1]; NaClO2 10 mM): Neg; Turbidity ([2]; NaClO2 0.03125 mM): Pos; Turbidity ([2]; NaClO2 0.0625 mM): Pos; Turbidity ([2]; NaClO2 0.125 mM): Neg; Turbidity ([2]; NaClO2 0.25 mM): Neg; Turbidity ([2]; NaClO2 0.5 mM): Neg; Turbidity ([2]; NaClO2 1 mM): Neg; Turbidity ([2]; NaClO2 10 mM): Neg
Sulfatrim [SXT] |  |  |  |  |  |  | Ring measurement (radius, mm) [3]: 11 mm; Ring measurement (radius, mm) [4]: 16 mm; Resistance of the strain to the antibiotic (in words) [4]: less resistance; Ring measurement (radius, mm) [5]: 17 mm
CC[C@H]1OC(=O)C[C@@H](O)[C@H](C)[C@@H](O[C@@H]2O[C@H](C)[C@@H](O[C@H]3C[C@@](C)(O)[C@@H](O)[C@H](C)O3)[C@H](N(C)C)[C@H]2O)[C@@H](CC=O)C[C@@H](C)C(=O)/C=C/C(C)=C/[C@@H]1CO[C@@H]1O[C@H](C)[C@@H](O)[C@@H](OC)[C@H]1OC [Tylosin (Tartrate/Base), Tylosin] | NI/>32.0000 | NI/>32.0000^ | NI/>32.0000 | NI/>32.0000 | NI/>32.0000 |  | 
CN1C[C@@H]2C[C@H]1CN2c1cc2c(cc1F)c(=O)c(C(=O)O)cn2C1CC1 [Danofloxacin] | NI/<=0.1200 | NI/<=0.1200 | NI/<=0.1200 | NI/<=0.1200 | NI/<=0.1200 |  | 
COc1cc(NS(=O)(=O)c2ccc(N)cc2)nc(OC)n1 [Sulfadimethoxine] |  |  |  |  |  | loss of antibiotic resistance | Antibiotic sensitivity of cured cells (in words) [9]: more sensitive
CN(C)[C@@H]1C(O)=C(C(N)=O)C(=O)[C@@]2(O)C(O)=C3C(=O)c4c(O)cccc4[C@@](C)(O)[C@H]3C[C@@H]12 [Tetracycline] |  |  |  |  |  |  | Ring measurement (radius, mm) [3]: 0 mm; Ring measurement (radius, mm) [4]: 0 mm; Ring measurement (radius, mm) [5]: 0 mm
CCCN1C[C@H](C)[C@@H](O)[C@](C)(O)[C@@H](CC)OC(=O)[C@H](C)[C@@H](O[C@H]2C[C@@](C)(OC)[C@@H](O)[C@H](C)O2)[C@H](C)[C@@H](O[C@@H]2O[C@H](C)C[C@H](N(C)C)[C@H]2O)[C@](C)(O)C[C@H]1C [Gamithromycin] | NI/4.0000 ^ | NI/4.0000 ^ | NI/8.0000 ^ | NI/>8.0000 | NI/8.0000 ^ |  | 
CCCNC[C@]1(O)[C@H](C)O[C@@H](O[C@H]2[C@H](C)[C@@H](O[C@@H]3O[C@H](C)C[C@H](N(C)C)[C@H]3O)[C@](C)(O)C[C@@H](C)CN[C@H](C)[C@@H](O)[C@](C)(O)[C@@H](CC)OC(=O)[C@@H]2C)C[C@@]1(C)OC [Tulathromycin] | NI/<=8.0000 | NI/<=8.0000 | NI/<=8.0000 | NI/32.0000 ^ | NI/<=8.0000 |  | 
Trimethoprim/Sulphamethoxazole | NI/<=2.0000 | NI/<=2.0000 | NI/<=2.0000 | NI/<=2.0000 | NI/<=2.0000 |  | 
C=C[C@]1(C)C[C@@H](OC(=O)CSCCN(CC)CC)[C@]2(C)[C@H](C)CC[C@]3(CCC(=O)[C@H]32)[C@@H](C)[C@@H]1O [Tiamulin] |  |  |  |  |  | retained resistance | 
CC[C@H]1OC(=O)C[C@@H](O)[C@H](C)[C@@H](O[C@@H]2O[C@H](C)[C@@H](O)[C@H](N(C)C)[C@H]2O)[C@@H](CCN2CCCCC2)C[C@@H](C)C(=O)/C=C/C(C)=C/[C@@H]1CN1CCCCC1 [Tildipirosin] | NI/4.0000 ^ | NI/4.0000 ^ | NI/8.0000 ^ | NI/8.0000 ^ | NI/8.0000 ^ |  | 
Gentamicin |  |  |  |  |  | loss of antibiotic resistance | Ring measurement (radius, mm) [3]: 4 mm; Ring measurement (radius, mm) [4]: 11 mm; Resistance of the strain to the antibiotic (in words) [4]: less resistance; Ring measurement (radius, mm) [5]: 11 mm
CS(=O)(=O)c1ccc([C@@H](O)[C@@H](CF)NC(=O)C(Cl)Cl)cc1 [Florfenicol] |  |  |  |  |  | loss of antibiotic resistance | Antibiotic sensitivity of cured cells (in words) [9]: more sensitive
Neomycin |  |  |  |  |  |  | Antibiotic sensitivity of cured cells (in words) [9]: more sensitive; Ring measurement (radius, mm) [3]: 7 mm; Ring measurement (radius, mm) [4]: 8 mm; Resistance of the strain to the antibiotic (in words) [4]: less resistance; Ring measurement (radius, mm) [5]: 11 mm; Resistance of the strain to the antibiotic (in words) ([5]; disc test): retained resistance; Ring measurement (radius, mm) ([10]; antibiotic disc, Mueller Hinton plates, ECMS091703HM-SR): 34 mm; Resistance of the strain to the antibiotic (in words) ([10]; disc test, ECMS091703HM-SR compared with ECMS091703HM-competent): less resistance
CC[C@H]1OC(=O)C[C@@H](O)[C@H](C)[C@@H](O[C@@H]2O[C@H](C)[C@@H](O)[C@H](N(C)C)[C@H]2O)[C@@H](CCN2C[C@H](C)C[C@H](C)C2)C[C@@H](C)C(=O)/C=C/C(C)=C/[C@@H]1CO[C@@H]1O[C@H](C)[C@@H](O)[C@@H](OC)[C@H]1OC [Tilmicosin] |  |  |  |  |  | retained resistance | 
Penicillin |  |  |  |  |  | retained resistance | 
CN[C@@H]1[C@H](O)[C@H](NC)[C@H]2O[C@@]3(O)C(=O)C[C@@H](C)O[C@H]3O[C@@H]2[C@H]1O [Spectinomycin] | NI/>64.0000 | NI/16.0000 | NI/<=8.0000 | NI/>64.0000 | NI/<=8.0000 |  | 
